Test results reported in patent US7138361B2, “Herbicidal heterocycles” (E. I. du Pont de Nemours and Company, priority 2000, dated 2006).

Key:
Format in all cases: in vivo
[1] = system: Sunflower; assay: Test C preemergence; settings: Rate 500 g/ha, visual evaluation after 12 to 14 days
[2] = system: crabgrass (Digitaria sanguinalis); assay: Test B postemergence
Method in brief: (§1)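 Visual injury scores, 0 = no effect to 100 = complete control, assigned against controls after 13 to 15 days in the greenhouse. Compounds formulated in non-phytotoxic solvent plus surfactant and applied to soil after planting (pre) or onto foliage of 1- to 4-leaf plants (post).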

[3] = system: wheat (Triticum aestivum); assay: Test B postemergence
Method in brief: as §1

[4] = system: blackgrass (Alopecurus myosuroides); assay: Test B postemergence
Method in brief: as §1

[5] = system: corn (Zea mays); assay: Test B postemergence
Method in brief: as §1

[6] = system: velvetleaf (Abutilon theophrasti); assay: Test B postemergence
Method in brief: as §1

[7] = system: lambsquarters (Chenopodium album); assay: Test B postemergence
Method in brief: as §1

[8] = system: cocklebur (Xanthium strumarium); assay: Test B postemergence
Method in brief: as §1

[9] = system: barnyardgrass (Echinochloa crus-galli); assay: Test B postemergence
Method in brief: as §1

[10] = system: Surinam grass (Brachiaria decumbens); assay: Test B postemergence
Method in brief: as §1

[11] = system: pigweed (Amaranthus retroflexus); assay: Test B postemergence
Method in brief: as §1

[12] = system: giant foxtail (Setaria faberii); assay: Test B postemergence
Method in brief: as §1

[13] = system: wild oat (Avena fatua); assay: Test B postemergence
Method in brief: as §1

[14] = system: morning glory (Ipomoea hederacea); assay: Test B postemergence
Method in brief: as §1

[15] = system: Sunflower; assay: Test C preemergence; settings: Rate 250 g/ha, scale 0 to 100, 0 no effect, 100 complete control
[16] = system: crabgrass (Digitaria sanguinalis); assay: Test C preemergence
Method in brief: (§2)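 Pre- and postemergence treatments used a non-phytotoxic solvent/surfactant formulation; post-treated plants measured 2 to 18 cm. Greenhouse hold 12–14 d; % control estimated visually relative to controls.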

[17] = system: soybean (Glycine max); assay: Test C preemergence
Method in brief: as §2

[18] = system: Sunflower; assay: Test C preemergence; settings: Rate 125 g/ha; scale 0 to 100, 0 no effect, 100 complete control
[19] = system: bermudagrass (Cynodon dactylon); assay: Test C preemergence
Method in brief: as §2

[20] = system: velvetleaf (Abutilon theophrasti); assay: Test C preemergence
Method in brief: as §2

[21] = system: goosegrass (Eleusine indica); assay: Test C preemergence
Method in brief: as §2

[22] = system: cocklebur (Xanthium strumarium); assay: Test C preemergence; settings: for Plant response rating, Cocklebur: scale 0 to 100, 0 no effect, 100 complete control
Method in brief: as §2

[23] = system: kochia (Kochia scoparia); assay: Test C preemergence
Method in brief: as §2

[24] = Rate 125 g/ha, scale 0 to 100, 0 no effect, 100 complete control
[25] = Rate 500 g/ha, scale 0 (no effect) to 100 (complete control), 13 to 15 days
[26] = preemergence, Rate 62 g/ha, scale 0 to 100
[27] = preemergence, Rate 500 g/ha, visual evaluation after 12 to 14 days
[28] = preemergence, Rate 250 g/ha, scale 0 to 100, 0 no effect, 100 complete control

## CCC(CC)c1ccn(C2CCN(c3ccc(Br)c(OC)c3)C2=O)n1 (centres unmarked) [Compound 143]
[1]
  Plant response rating (0 to 100), Sunflower: 90
[2]; [24]
  Plant response rating, Crabgrass: 0
[2]; [25]
  Plant response rating, Crabgrass: 80
[3]; [24]
  Plant response rating, Wheat: 0
[3]; [25]
  Plant response rating, Wheat: 0
[4]; [24]
  Plant response rating, Blackgrass: 0
[4]; [25]
  Plant response rating, Blackgrass: 0
[5]; [24]
  Plant response rating, Corn: 0
[5]; [25]
  Plant response rating, Corn: 0
[6]; [24]
  Plant response rating, Velvetleaf: 50
[6]; [25]
  Plant response rating, Velvetleaf: 70
[7]; [24]
  Plant response rating, Lambsquarters: 80
[7]; [25]
  Plant response rating, Lambsquarters: 100
[8]; [24]
  Plant response rating, Cocklebur: 0
[8]; [25]
  Plant response rating, Cocklebur: 100
[9]; [24]
  Plant response rating, Barnyardgrass: 0
[9]; [25]
  Plant response rating, Barnyardgrass: 70
[10]; [24]
  Plant response rating, Surinam grass: 0
[10]; [25]
  Plant response rating, Surinam grass: 0
[11]; [24]
  Plant response rating, Pigweed: 70
[11]; [25]
  Plant response rating, Pigweed: 90
[12]; [24]
  Plant response rating, Foxtail, Giant: 30
[12]; [25]
  Plant response rating, Foxtail, Giant: 80
[13]; [24]
  Plant response rating, Wild Oat: 0
[13]; [25]
  Plant response rating, Wild Oat: 0
[14]; [24]
  Plant response rating, Morningglory: 30
[14]; [25]
  Plant response rating, Morningglory: 100
[15]
  Plant response rating, Sunflower: 80
[16]; [24]
  Plant response rating, Crabgrass: 100
[16]; [26]
  Plant response rating, Crabgrass: 100
[16]; [27]
  Plant response rating (0 to 100), Crabgrass: 100
[16]; [28]
  Plant response rating, Crabgrass: 100
[17]; [24]
  Plant response rating, Soybean: 80
[17]; [26]
  Plant response rating, Soybean: 70
[17]; [27]
  Plant response rating (0 to 100), Soybean: 100
[17]; [28]
  Plant response rating, Soybean: 80
[18]
  Plant response rating, Sunflower: 80
[19]; [24]
  Plant response rating, Bermudagrass: 100
[19]; [26]
  Plant response rating, Bermudagrass: 100
[19]; [27]
  Plant response rating (0 to 100 where 0 is no effect and 100 is complete control), Bermudagrass: 100
[19]; [28]
  Plant response rating, Bermudagrass: 100
[20]; [24]
  Plant response rating, Velvetleaf: 70
[20]; [26]
  Plant response rating, Velvetleaf: 70
[20]; [27]
  Plant response rating (0 to 100), Velvetleaf: 100
[20]; [28]
  Plant response rating, Velvetleaf: 90
[21]; [24]
  Plant response rating, Goosegrass: 100
[21]; [26]
  Plant response rating, Goosegrass: 100
[21]; [27]
  Plant response rating (0 to 100), Goosegrass: 100
[21]; [28]
  Plant response rating, Goosegrass: 100
[22]; Rate 125 g/ha
  Plant response rating, Cocklebur: 50
[22]; [27]
  Plant response rating (0 to 100), Cocklebur: 55
[22]; preemergence, Rate 250 g/ha
  Plant response rating, Cocklebur: 50
[23]; [24]
  Plant response rating, Kochia: 100
[23]; [26]
  Plant response rating, Kochia: 100
[23]; [27]
  Plant response rating (0 to 100), Kochia: 100
[23]; [28]
  Plant response rating, Kochia: 100
